Patent US11952365B2, “Anti-viral compounds” (Aligos Therapeutics, Inc., priority 2020, dated 2024)
Where two headings read alike, the source gives them in different places.

Experiments:
HRV3C = HRV3C (Human rhinovirus 14, UniProt P03303); assay: HRV3C protease assay (duplex, SAMDI-MS); format: biochemical, HRV; conditions: HRV3C, 30 mins preincubation, read-out: HRV IC50
Method in brief: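 Compounds are preincubated 30 min with the protease pair before substrate addition, and cleavage proceeds 30 min at room temperature. Product peptides are measured by SAMDI-MS relative to internal standards, with IC50 obtained from a four-parameter fit.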

[1] = tested on: human beta-coronavirus OC43; assay: microbe, parasite or virus in culture; format: cell-based; conditions: OC43 in HeLa cells, 6 days at 33° C., class symbols, read-out: EC50
[2] = Cytotoxicity plates without OC43 virus (cell-titer-glo); format: cell-based, human; conditions: human; HeLa cells without OC43 virus, class symbols
Method in brief: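 Run as a virus-free counterpart of the OC43 cytopathic-effect assay. Attached HeLa cells received compound dilutions in EMEM with 2% FBS and were kept 6 days at 33 °C. Cell viability was then measured by CellTiter-Glo luminescence.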

[3] = tested on: SARS-CoV-2-GHB-03021/2020; assay: SARS-CoV-2 Infection Model in Huh7 Cells; format: cell-based; conditions: Severe acute respiratory syndrome coronavirus 2, Huh-7, 96 h, SARS-CoV-2, day 4 p.i., MTS
[4] = tested on: SARS-CoV-2-GHB-03021/2020; assay: microbe, parasite or virus in culture; format: cell-based; conditions: Severe acute respiratory syndrome coronavirus 2, Vero C1008, 96 h; read-out: VeroE6 + CP (EC50)
human cathepsin L = target: T1, human cathepsin L (Homo sapiens, UniProt P07711); assay: cathepsin L assay; format: biochemical; conditions: 10 pM human cathepsin L, Z-FR-AMC 2 μM, class symbols
T1 construct: purchased R&D Systems
Method in brief: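 Reactions began by adding 2 μM (final) Z-FR-AMC substrate to 10 pM human cathepsin L that had been preincubated 30 min with inhibitor. Kinetic AMC fluorescence at 355/460 nm over 30 min at 2-min intervals; four-parameter fitting gave IC50 values.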

in vitro [5] = conditions: human
in vitro [6] = conditions: African green monkey, VeroE6 + CP (CC50), Vero E6-eGFP cells with CP-100356, absence of virus, MTS
3CLpro = 3CLpro (Severe acute respiratory syndrome coronavirus 2, UniProt P0DTD1); assay: SARS-CoV-2 3CLpro protease assay (duplex, SAMDI-MS); format: biochemical; parameters: For the duplex assay, 3CLpro and HRV3C was added; conditions: 3CLpro, 30 mins preincubation, class symbols; read-out: SARS-Cov-2 IC50
[7] = Betacoronavirus 1, OC43, HeLa, 144 h

O=C1NCC[C@H]1C[C@H](NC(=O)[C@@H]1[C@H]2CCC[C@H]2CN1C(=O)c1cc2c(Cl)cc(F)cc2[nH]1)C(=O)CO [Compound 90, (1S,3aR,6aS)-2-(4-chloro-6-fluoro-1H-indole-2-carbonyl)-N-[(2S)-4-hydroxy-3-oxo-1-[(3S)-2-oxopyrrolidin-3-yl]butan-2-yl]-hexahydro-1H-cyclopenta[c]pyrrole-1-carboxamide]
IC50 (HRV3C; class symbols): 2 to 20 µM
EC50 [1, 7]: < 0.1 µM
CC50 at 6 days [2]: > 10 µM
EC50 ([3]; class symbols): < 1 µM
EC50 [4]: < 1 µM
IC50 (human cathepsin L): ≥ 10 µM
CC50 (in vitro [5]): > 50 µM
CC50 (in vitro [6]; numeric bounds): > 100 µM
IC50 (3CLpro): < 0.02 µM

COc1cc(Cl)c(Cl)c2[nH]c(C(=O)N3C[C@@H]4CCC[C@@H]4[C@H]3C(=O)N[C@@H](C[C@@H]3CCNC3=O)C(=O)CO)cc12 [Compound 158, (1S,3aR,6aS)-2-(6,7-dichloro-4-methoxy-1H-indole-2-carbonyl)-N-[(2S)-4-hydroxy-3-oxo-1-[(3S)-2-oxopyrrolidin-3-yl]butan-2-yl]-hexahydro-1H-cyclopenta[c]pyrrole-1-carboxamide]
IC50 (HRV3C; class symbols): 2 to 20 µM
EC50 [1, 7]: 0.1 to 1 µM
CC50 at 6 days [2]: > 10 µM
EC50 ([3]; class symbols): < 1 µM
EC50 [4]: < 1 µM
IC50 (human cathepsin L): ≥ 10 µM
CC50 (in vitro [5]): > 10 µM
CC50 (in vitro [6]; numeric bounds): > 50 µM
IC50 (3CLpro): < 0.02 µM

COc1cccc2[nH]c(C(=O)N3C[C@H]4[C@@H]([C@H]3C(=O)N[C@@H](C[C@@H]3CCCNC3=O)C(=O)COCc3ccccc3)C4(C)C)cc12 [Compound 49A, (1R,2S,5S)—N-[(2S)-4-(benzyloxy)-3-oxo-1-[(3S)-2-oxopiperidin-3-yl]butan-2-yl]-3-(4-methoxy-1H-indole-2-carbonyl)-6,6-dimethyl-3-azabicyclo[3.1.0]hexane-2-carboxamide]
IC50 (HRV3C; bound): > 10 µM
EC50 [1, 7]: 0.1 to 1 µM
CC50 at 6 days [2]: > 10 µM
EC50 ([3]; class symbols): 1 to 10 µM
EC50 [4]: 1 to 10 µM
IC50 (human cathepsin L): ≥ 10 µM
CC50 (in vitro [5]): > 10 µM
CC50 (in vitro [6]; class symbols): > 10 µM
IC50 (3CLpro): 0.02 to 0.2 µM

O=C(c1ccccc1)c1c[nH]c(C(=O)N2C[C@@H]3CCC[C@@H]3[C@H]2C(=O)N[C@@H](C[C@@H]2CCNC2=O)C(=O)CO)c1 [Compound 84, (1S,3aR,6aS)-2-(4-benzoyl-1H-pyrrole-2-carbonyl)-N-[(2S)-4-hydroxy-3-oxo-1-[(3S)-2-oxopyrrolidin-3-yl]butan-2-yl]-hexahydro-1H-cyclopenta[c]pyrrole-1-carboxamide]
IC50 (HRV3C; class symbols): 2 to 20 µM
EC50 [1, 7]: 1 to 10 µM
CC50 at 6 days [2]: > 10 µM
EC50 ([3]; numeric bounds): > 50 µM
EC50 [4]: 1 to 10 µM
IC50 (human cathepsin L): ≥ 10 µM
CC50 (in vitro [5]): > 50 µM
CC50 (in vitro [6]; numeric bounds): > 50 µM
IC50 (3CLpro): 0.02 to 0.2 µM

CC[C@@H]1C[C@@H](C(=O)N[C@@H](C[C@@H]2CCNC2=O)C(=O)C(=O)NCc2ccccc2)N(C(=O)c2cc3ccccc3[nH]2)C1 [Compound 28]
IC50 (HRV3C; class symbols): 2 to 20 µM
EC50 [1, 7]: 0.1 to 1 µM
CC50 at 6 days [2]: > 10 µM
EC50 ([3]; class symbols): < 1 µM
EC50 [4]: 1 to 10 µM
IC50 (human cathepsin L): < 0.1 µM
CC50 (in vitro [5]): > 10 µM
CC50 (in vitro [6]; numeric bounds): > 100 µM
IC50 (3CLpro): 0.2 to 2 µM

COc1cccc2[nH]c(C(=O)N3C[C@@H]4CCC[C@@H]4[C@H]3C(=O)NC(C[C@@H]3CCNC3=O)C(=O)C(C)O)cc12 (stereo partly drawn) [Compound 62, (1S,3aR,6aS)—N-(4-hydroxy-3-oxo-1-((S)-2-oxopyrrolidin-3-yl)pentan-2-yl)-2-(4-methoxy-1H-indole-2-carbonyl)octahydrocyclopenta[c]pyrrole-1-carboxamide]
IC50 (HRV3C; bound): > 10 µM
EC50 [1, 7]: 1 to 10 µM
CC50 at 6 days [2]: > 10 µM
EC50 ([3]; class symbols): 10 to 100 µM
EC50 [4]: 10 to 100 µM
IC50 (human cathepsin L): ≥ 10 µM
CC50 (in vitro [5]): > 100 µM
CC50 (in vitro [6]; class symbols): > 10 µM
IC50 (3CLpro): 0.2 to 2 µM

Cc1cccc2[nH]c(C(=O)N3CCC4(CC4)C[C@H]3C(=O)N[C@@H](C[C@@H]3CCNC3=O)C(=O)C(=O)NC3CC3)cc12 [Compound 169]
IC50 (HRV3C; class symbols): 0.2 to 2 µM
EC50 [1, 7]: 1 to 10 µM
CC50 at 6 days [2]: > 10 µM
EC50 ([3]; class symbols): 1 to 10 µM
EC50 [4]: 1 to 10 µM
IC50 (human cathepsin L): 1 to 10 µM
CC50 (in vitro [5]): > 10 µM
CC50 (in vitro [6]; numeric bounds): > 50 µM
IC50 (3CLpro): 0.02 to 0.2 µM

COc1cccc2[nH]c(C(=O)N3C[C@]4(C[C@H]3C(=O)NC(C[C@@H]3CCCNC3=O)C(=O)C(=O)NC3CC3)CC4(F)F)cc12 (stereo partly drawn) [Compound 38, N-cyclopropyl-3-{[(3S,6S)-1,1-difluoro-5-(4-methoxy-1H-indole-2-carbonyl)-5-azaspiro[2.4]heptan-6-yl]formamido}-2-oxo-4-[(3S)-2-oxopiperidin-3-yl]butanamide]
IC50 (HRV3C; class symbols): 0.2 to 2 µM
EC50 [1, 7]: 0.1 to 1 µM
CC50 at 6 days [2]: > 10 µM
EC50 ([3]; class symbols): 1 to 10 µM
EC50 [4]: 1 to 10 µM
IC50 (human cathepsin L): < 0.1 µM
CC50 (in vitro [5]): > 100 µM
CC50 (in vitro [6]; numeric bounds): > 100 µM
IC50 (3CLpro): 0.02 to 0.2 µM

O=C(NC1CC1)C(=O)C(CC1CC2(CC2)NC1=O)NC(=O)[C@@H]1[C@H]2CCC[C@H]2CN1C(=O)c1cc2c(Cl)cc(Cl)cc2[nH]1 (single isomer, unassigned) [Compound 116A, (1S,3aR,6aS)—N-(4-(cyclopropylamino)-3,4-dioxo-1-((R*)-5-oxo-4-azaspiro[2.4]heptan-6-yl)butan-2-yl)-2-(4,6-dichloro-1H-indole-2-carbonyl)octahydrocyclopenta[c]pyrrole-1-carboxamide]
IC50 (HRV3C; class symbols): 0.2 to 2 µM
EC50 [1]: 0.1 to 1 µM
CC50 at 6 days [2]: > 10 µM
EC50 ([3]; class symbols): < 1 µM
EC50 [4]: 1 to 10 µM
IC50 (human cathepsin L): ≥ 10 µM
CC50 (in vitro [5]): > 10 µM
CC50 (in vitro [6]; numeric bounds): > 50 µM
IC50 (3CLpro): 0.02 to 0.2 µM

O=C1NCC[C@H]1C[C@H](NC(=O)[C@@H]1[C@@H]2[C@H](CN1C(=O)c1cc3c(Cl)cc(Cl)cc3[nH]1)[C@@H]1C=C[C@H]2C1)C(=O)CO [Compound 136, (1R,2S,3S,6R,7S)-4-(4,6-dichloro-1H-indole-2-carbonyl)-N-[(2S)-4-hydroxy-3-oxo-1-[(3S)-2-oxopyrrolidin-3-yl]butan-2-yl]-4-azatricyclo[5.2.1.0^{2,6}]dec-8-ene-3-carboxamide]
IC50 (HRV3C; class symbols): 2 to 20 µM
EC50 [1, 7]: < 0.1 µM
CC50 at 6 days [2]: > 10 µM
EC50 ([3]; class symbols): < 1 µM
EC50 [4]: < 1 µM
IC50 (human cathepsin L): ≥ 10 µM
CC50 (in vitro [5]): > 50 µM
CC50 (in vitro [6]; numeric bounds): > 50 µM
IC50 (3CLpro): < 0.02 µM

CC(C)C(=O)OCC(=O)[C@H](C[C@@H]1CCNC1=O)NC(=O)[C@@H]1[C@H]2CCC[C@H]2CN1C(=O)c1cc2c(Cl)cc(Cl)cc2[nH]1 [Compound 125, (3S)-3-{[(1S,3aR,6aS)-2-(4,6-dichloro-1H-indole-2-carbonyl)-hexahydro-1H-cyclopenta[c]pyrrol-1-yl]formamido}-2-oxo-4-[(3S)-2-oxopyrrolidin-3-yl]butyl 2-methylpropanoate]
IC50 (HRV3C; bound): > 10 µM
EC50 [1, 7]: < 0.1 µM
CC50 at 6 days [2]: > 10 µM
EC50 ([3]; class symbols): < 1 µM
EC50 [4]: < 1 µM
IC50 (human cathepsin L): ≥ 10 µM
CC50 (in vitro [5]): > 10 µM
CC50 (in vitro [6]; numeric bounds): > 50 µM
IC50 (3CLpro): 0.2 to 2 µM

COc1cccc2[nH]c(C(=O)N3C[C@@H]4CCC[C@@H]4[C@H]3C(=O)NC(C[C@@H]3CCNC3=O)C(=O)C(=O)NC3CC3)cc12 (stereo partly drawn) [Compound 52, 3-{[(1S,3aR,6aS)-2-(4-methoxy-1H-indole-2-carbonyl)-hexahydro-1H-cyclopenta[c]pyrrol-1-yl]formamido}-N-cyclopropyl-2-oxo-4-[(3S)-2-oxopyrrolidin-3-yl]butanamide]
IC50 (HRV3C; class symbols): 0.2 to 2 µM
EC50 [1, 7]: 1 to 10 µM
CC50 at 6 days [2]: > 10 µM
EC50 ([3]; class symbols): 10 to 100 µM
EC50 [4]: 1 to 10 µM
IC50 (human cathepsin L): ≥ 10 µM
CC50 (in vitro [5]): > 100 µM
CC50 (in vitro [6]; numeric bounds): > 100 µM
IC50 (3CLpro): < 0.02 µM

COc1cccc2[nH]c(C(=O)N3C[C@@H]4CCC[C@@H]4[C@H]3C(=O)NC(C[C@@H]3CCNC3=O)C(=O)C(=O)NCc3ccccc3)cc12 (stereo partly drawn) [Compound 16, 3-[[(1S,3aR,6aS)-2-(4-methoxy-1H-indole-2-carbonyl)-hexahydro-1H-cyclopenta[c]pyrrol-1-yl]formamido]-N-benzyl-2-oxo-4-[(3S)-2-oxopyrrolidin-3-yl]butanamide]
IC50 (HRV3C; class symbols): 0.2 to 2 µM
EC50 [1, 7]: 0.1 to 1 µM
CC50 at 6 days [2]: > 10 µM
EC50 ([3]; class symbols): 1 to 10 µM
EC50 [4]: 1 to 10 µM
IC50 (human cathepsin L): ≥ 10 µM
CC50 (in vitro [5]): > 10 µM
CC50 (in vitro [6]; class symbols): > 10 µM
IC50 (3CLpro): 0.02 to 0.2 µM

O=C(NCCOCC1CCCC1)C(=O)[C@H](C[C@@H]1CCNC1=O)NC(=O)[C@@H]1[C@H]2CCC[C@H]2CN1C(=O)c1cc2c(Cl)cc(Cl)cc2[nH]1 [Compound 174]
IC50 (HRV3C; class symbols): 2 to 20 µM
EC50 [1, 7]: 0.1 to 1 µM
CC50 at 6 days [2]: > 10 µM
EC50 ([3]; class symbols): < 1 µM
EC50 [4]: < 1 µM
IC50 (human cathepsin L): 1 to 10 µM
CC50 (in vitro [5]): 1 to 10 µM
CC50 (in vitro [6]; class symbols): 1 to 10 µM
IC50 (3CLpro): 0.02 to 0.2 µM
